Test results taken from patent publication US20250304563A1, “ACTIVATORS OF EFFECTOR T CELLS” (Orum Therapeutics, Inc., priority 2022, published 2025).

Target: Cbl-b (36-427 aa truncated form, N-terminus Avi-tag) (Homo sapiens (Human), UniProt Q13191)
Assay: Cbl-b binding: TR-FRET displacement of BODIPY-FL probe
Description: Compounds were assessed for binding activity to Cbl-b by their ability to compete with and displace a probe comprised of BODIPY-FL fluorophore conjugated to a Cbl-b inhibitor (see Example 54 in WO2020264398). In the assay, a 36-427 aa truncated form of Cbl-b with an N-terminus Avi-tag was incubated 20 mM HEPES pH 7.5, 150 mM NaCl, 0.01% Triton X-100, 0.1% BSA, 0.5 mM TCEP buffer with streptavidin-terbium (Cisbio). After one hour of incubation at room temperature, 1 uM each of fluorescent probe and compound were combined with the reaction mixture. Compounds with Cbl-b binding activity competitively displace the fluorophore tagged inhibitor thereby disrupting the FRET signal from the terbium-BODIPY-FL complex. The reaction mixtures were incubated for one additional hour at room temperature to allow for competition between inhibitor and candidate compounds to occur. The time resolved FRET (TR-FRET) signal was then read at 520/620 […] (excitation/emission) using a Spectramax M5e plate reader (Molecular Devices) to measure probe displacement. Compounds with Cbl-b binding activity had decreased FRET signal owing to disruption of the terbium-BODIPY-FL FRET complex. Standard methods in PRISM were used to calculate the compound IC50 values from the experimental data.

Sequence of Cbl-b (36-427 aa truncated form, N-terminus Avi-tag) (Q13191 36-427): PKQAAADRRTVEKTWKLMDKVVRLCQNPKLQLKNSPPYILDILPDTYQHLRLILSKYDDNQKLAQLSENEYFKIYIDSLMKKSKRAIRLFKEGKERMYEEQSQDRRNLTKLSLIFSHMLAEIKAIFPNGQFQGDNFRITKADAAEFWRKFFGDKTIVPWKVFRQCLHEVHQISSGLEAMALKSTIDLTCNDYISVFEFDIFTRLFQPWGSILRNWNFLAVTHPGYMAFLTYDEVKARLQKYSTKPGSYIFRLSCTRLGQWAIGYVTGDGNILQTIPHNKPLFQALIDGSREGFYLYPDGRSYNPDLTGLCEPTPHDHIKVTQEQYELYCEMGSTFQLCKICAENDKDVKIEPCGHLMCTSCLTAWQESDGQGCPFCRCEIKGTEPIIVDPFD

Row | IC50 [nM] | SMILES
1 | 20 to 100 | CCNc1cc(C(CO)(CCl)Cc2nncn2C)cc(N2Cc3c(cc(CN4CCC[C@H](C)C4)cc3C(F)(F)F)C2=O)n1 (stereo partly drawn) [Compound 187, 2-(4-(1-chloro-3-hydroxy-2-((4-methyl-4H-1,2,4-triazol-3-yl)methyl)propan-2-yl)-6-(ethylamino)pyridin-2-yl)-6-(((S)-3-methylpiperidin-1-yl)methyl)-4-(trifluoromethyl)isoindolin-1-one; hydrochloric acid]
2 | 1 to 5 | C[C@H]1CCCN(Cc2cc3c(c(C(F)(F)F)c2)CN(c2cc(C4(Cc5nncn5C)COC4)cc(NCCS)n2)C3=O)C1 [Compound 108, 2-(4-{3-[(4-methyl-1,2,4-triazol-3-yl)methyl]oxetan-3-yl}-6-[(2-sulfanylethyl)amino]pyridin-2-yl)-6-{[(3S)-3-methylpiperidin-1-yl]methyl}-4-(trifluoromethyl)-3H-isoindol-1-one]
3 | 100 to 1000 | CNCc1cc(C2(Cc3nncn3C)COC2)cc(N2Cc3c(cc(CN4CCC[C@H](C)C4)cc3C(F)(F)F)C2=O)n1 [Compound 104, 2-(4-{3-[(4-methyl-1,2,4-triazol-3-yl)methyl]oxetan-3-yl}-6-[(methylamino)methyl]pyridin-2-yl)-6-{[(3S)-3-methylpiperidin-1-yl]methyl}-4-(trifluoromethyl)-3H-isoindol-1-one; trifluoroacetic acid]
4 | 100 to 1000 | CCNc1cc(C2(c3nncn3C)CC(C)C2)cc(N2Cc3c(cc(CN4CCC[C@H](C)C4)cc3[S+](C)[O-])C2=O)n1 (stereo partly drawn) [Compound 178, 2-[6-(ethylamino)-4-[(1r,3s)-3-methyl-1-(4-methyl-1,2,4-triazol-3-yl)cyclobutyl]pyridin-2-yl]-4-methanesulfinyl-6-{[(3S)-3-methylpiperidin-1-yl]methyl}-3H-isoindol-1-one]
5 | 100 to 1000 | CCSc1cc(C(CO)(CCl)Cc2nncn2C)cc(N2Cc3c(cc(CN4CCC[C@H](C)C4)cc3C(F)(F)F)C2=O)n1 (stereo partly drawn) [Compound 188, 2-(4-(1-chloro-3-hydroxy-2-((4-methyl-4H-1,2,4-triazol-3-yl)methyl)propan-2-yl)-6-(ethylthio)pyridin-2-yl)-6-(((S)-3-methylpiperidin-1-yl)methyl)-4-(trifluoromethyl)isoindolin-1-one; hydrochloric acid]
6 | 5.01 to 20 | Cn1cnnc1CC1(c2cc(NCCC#N)nc(N3Cc4c(cc(CN5CC[C@@H](CN6CCOCC6)C5)cc4C(F)(F)F)C3=O)c2)COC1 [Compound 165, 3-[(4-{3-[(4-methyl-1,2,4-triazol-3-yl)methyl]oxetan-3-yl}-6-(6-{[(3R)-3-(morpholin-4-ylmethyl)pyrrolidin-1-yl]methyl}-1-oxo-4-(trifluoromethyl)-3H-isoindol-2-yl)pyridin-2-yl)amino]propanenitrile; trifluoroacetic acid]
7 | 20 to 100 | C#CCN1CCN(c2cc(C3(Cc4nncn4C)COC3)cc(N3Cc4c(cc(CN5CCC[C@H](C)C5)cc4C(F)(F)F)C3=O)n2)CC1 [Compound 127, (S)-2-(4-(3-((4-methyl-4H-1,2,4-triazol-3-yl)methyl)oxetan-3-yl)-6-(4-(prop-2-yn-1-yl)piperazin-1-yl)pyridin-2-yl)-6-((3-methylpiperidin-1-yl)methyl)-4-(trifluoromethyl)isoindolin-1-one]
8 | 5.01 to 20 | CN1CCOC2(CCN(Cc3cc4c(c(C(F)(F)F)c3)CN(c3cc(C5(Cc6nncn6C)COC5)cc(NCCC#N)n3)C4=O)C2)C1 (stereo not drawn) [Compound 163, 3-[(4-{3-[(4-methyl-1,2,4-triazol-3-yl)methyl]oxetan-3-yl}-6-[6-({9-methyl-6-oxa-2,9-diazaspiro[4.5]decan-2-yl}methyl)-1-oxo-4-(trifluoromethyl)-3H-isoindol-2-yl]pyridin-2-yl)amino]propanenitrile]
9 | 1 to 5 | C[C@H]1CCCN(Cc2cc(C=O)c3c(c2)C(=O)N(c2cc(C4(Cc5nncn5C)COC4)cc(NCCC#N)n2)C3)C1 [Compound 177, 3-{[6-(4-formyl-6-{[(3S)-3-methylpiperidin-1-yl]methyl}-1-oxo-3H-isoindol-2-yl)-4-{3-[(4-methyl-1,2,4-triazol-3-yl)methyl]oxetan-3-yl}pyridin-2-yl]amino}propanenitrile]
10 | 5.01 to 20 | CCSc1cc(C2(Cc3nncn3C)COC2)cc(N2Cc3c(C(=O)O)cc(CN4CCC[C@H](C)C4)cc3C2=O)n1 [Compound 166, 2-[6-(ethylsulfanyl)-4-{3-[(4-methyl-1,2,4-triazol-3-yl)methyl]oxetan-3-yl}pyridin-2-yl]-6-{[(3S)-3-methylpiperidin-1-yl]methyl}-1-oxo-3H-isoindole-4-carboxylic acid; trifluoroacetic acid]
11 | 20 to 100 | Cn1cnnc1CC1(c2cc(NCCC#N)nc(N3Cc4c(cc(C=O)cc4C(F)(F)F)C3=O)c2)COC1 [Compound 157, 3-({6-[6-formyl-1-oxo-4-(trifluoromethyl)-3H-isoindol-2-yl]-4-{3-[(4-methyl-1,2,4-triazol-3-yl)methyl]oxetan-3-yl}pyridin-2-yl}amino)propanenitrile]
12 | 20 to 100 | CCNc1cc(C2(Cc3nncn3C)COC2)cc(N2Cc3cc(CN4CCC[C@H](C)C4)sc3C2=O)n1 [Compound 149, 5-[6-(ethylamino)-4-{3-[(4-methyl-1,2,4-triazol-3-yl)methyl]oxetan-3-yl}pyridin-2-yl]-2-{[(3S)-3-methylpiperidin-1-yl]methyl}-4H-thieno[2,3-c]pyrrol-6-one]
13 | 1 to 5 | Cn1cnnc1CC1(c2cc(NCCC#N)nc(N3Cc4c(cc(CN5CCC(O)(C6CC6)CC5)cc4C(F)(F)F)C3=O)c2)COC1 [Compound 155, 3-[(6-{6-[(4-cyclopropyl-4-hydroxypiperidin-1-yl)methyl]-1-oxo-4-(trifluoromethyl)-3H-isoindol-2-yl}-4-{3-[(4-methyl-1,2,4-triazol-3-yl)methyl]oxetan-3-yl}pyridin-2-yl)amino]propanenitrile]
14 | 5.01 to 20 | C[C@H]1CCCN(Cc2cc3c(c(C(F)(F)F)c2)CN(c2cc(C4(Cc5nncn5C)COC4)cc(N4CCNCC4)n2)C3=O)C1 [Compound 140, (S)-2-(4-(3-((4-methyl-4H-1,2,4-triazol-3-yl)methyl)oxetan-3-yl)-6-(piperazin-1-yl)pyridin-2-yl)-6-((3-methylpiperidin-1-yl)methyl)-4-(trifluoromethyl)isoindolin-1-one; trifluoro acetic acid]
15 | 100 to 1000 | CCNc1cc([C@]2(c3nncn3C)C[C@H](C)C2)nc(N2Cc3c(cc(CN4CCC[C@H](C)C4)cc3C(F)(F)F)C2=O)n1 [Compound 114B, 2-[4-(ethylamino)-6-[(1r,3S)-3-methyl-1-(4-methyl-1,2,4-triazol-3-yl)cyclobutyl]pyrimidin-2-yl]-6-{[(3S)-3-methylpiperidin-1-yl]methyl}-4-(trifluoromethyl)-3H-isoindol-1-one]
16 | 100 to 1000 | CCNc1cc([C@]2(c3nncn3C)C[C@@H](C)C2)nc(N2Cc3c(cc(CN4CCC[C@H](C)C4)cc3C(F)(F)F)C2=O)n1 [Compound 114A, 2-[4-(ethylamino)-6-[(1s,3R)-3-methyl-1-(4-methyl-1,2,4-triazol-3-yl)cyclobutyl]pyrimidin-2-yl]-6-{[(3S)-3-methylpiperidin-1-yl]methyl}-4-(trifluoromethyl)-3H-isoindol-1-one]
17 | 20 to 100 | C[C@H]1CCCN(Cc2cc3c(c(C(F)(F)F)c2)CN(c2cc(C4(Cc5nncn5C)COC4)cc(N4CCN(CC#N)CC4)n2)C3=O)C1 [Compound 128, (S)-2-(4-(4-(3-((4-methyl-4H-1,2,4-triazol-3-yl)methyl)oxetan-3-yl)-6-(6-((3-methylpiperidin-1-yl)methyl)-1-oxo-4-(trifluoromethyl)isoindolin-2-yl)pyridin-2-yl)piperazin-1-yl)acetonitrile]
18 | 5.01 to 20 | CCSc1cc(C2(Cc3nncn3C)COC2)cc(N2Cc3c(C#N)cc(CN4CCC[C@H](C)C4)cc3C2=O)n1 [Compound 144, 2-[6-(ethylsulfanyl)-4-{3-[(4-methyl-1,2,4-triazol-3-yl)methyl]oxetan-3-yl}pyridin-2-yl]-6-{[(3S)-3-methylpiperidin-1-yl]methyl}-1-oxo-3H-isoindole-4-carbonitrile; trifluoroacetic acid]

Row | SMILES | IC50 [nM]
19 | CCNc1cc([C@]2(c3nncn3C)C[C@H](C)C2)cc(N2Cc3c(cc(CN4CCC[C@H](C)C4)cc3S(C)(=O)=O)C2=O)n1 [Compound 172, 2-[6-(ethylamino)-4-[(1r,3s)-3-methyl-1-(4-methyl-1,2,4-triazol-3-yl)cyclobutyl]pyridin-2-yl]-4-methanesulfonyl-6-{[(3S)-3-methylpiperidin-1-yl]methyl}-3H-isoindol-1-one; trifluoroacetic acid] | 100 to 1000
20 | Cn1cnnc1CC1(c2cc(NCCC#N)nc(N3Cc4c(cc(CN5CCc6ccc(O)cc6C5)cc4C(F)(F)F)C3=O)c2)COC1 [Compound 185, 3-((6-(6-((7-hydroxy-3,4-dihydroisoquinolin-2 (1H)-yl)methyl)-1-oxo-4-(trifluoromethyl)isoindolin-2-yl)-4-(3-((4-methyl-4H-1,2,4-triazol-3-yl)methyl)oxetan-3-yl)pyridin-2-yl)amino)propanenitrile; trifluoroacetic acid] | 5.01 to 20
21 | Cn1cnnc1CC1(c2cc(NCCC#N)nc(N3Cc4c(cc(CN5CCC6CC(O)CCC6C5)cc4C(F)(F)F)C3=O)c2)COC1 (stereo not drawn) [Compound 183, 3-((6-(6-((6-hydroxyoctahydroisoquinolin-2 (1H)-yl)methyl)-1-oxo-4-(trifluoromethyl)isoindolin-2-yl)-4-(3-((4-methyl-4H-1,2,4-triazol-3-yl)methyl)oxetan-3-yl)pyridin-2-yl)amino)propanenitrile; trifluoroacetic acid] | 100 to 1000
